From US20250387422A1, “FORMULATION OF AN AMPHOTERICIN B HYBRID AMIDE DERIVATIVE IN DSGPEG2K MICELLES” (The Board of Trustees of the University of Illinois, priority 2022, published 2025) come the findings set out here.

“Also recorded” adds a separate entry of the source. Some results are limits rather than exact numbers.

Holding throughout (type): physicochemical
Data set [1] is described as follows: In vitro plasma compatibility of AM-2-19 in human plasma. From the text:
The in vitro plasma compatibility of AM-2-19 in human plasma is represented below: […]

Data set [2] is described as follows: Solubility of AM-2-19-FB in D5W/DSG-PEG2000. Conditions: aqueous with cosolvent or surfactant or cyclodextrin.
Data set [3] in a line: Solution stability of AM-2-19 in IV-compatible solvents (FIG. 1). Conditions: IV-compatible solvents such as 5% dextrose in water (D5W).
Setting [4] is: ratio 1:0.1, final concentration AM-2-19 0.09 mg/mL.
Setting [5] is: ratio 1:0.1, final concentration AM-2-19 0.18 mg/mL.
Setting [6] is: ratio 1:0.1, final concentration AM-2-19 0.45 mg/mL.
[7] abbreviates: ratio 1:1, final concentration AM-2-19 0.50 mg/mL.
[8] abbreviates: ratio 1:1, final concentration AM-2-19 1.00 mg/mL.
Where [9] appears, read: ratio 1:1, final concentration AM-2-19 2.50 mg/mL.

As a reminder, the solubility is how much of the substance goes into solution per volume. `CC1OC(OC2/C=C/C=C/C=C/C=C/C=C/C=C/C=C/[C@H](C)[C@@H](O)[C@@H](C)[C@H](C)OC(=O)C[C@H](O)C[C@H](O)CC[C@@H](O)[C@H](O)C[C@H](O)C[C@]3(O)C[C@H](O)[C@@H](C(=O)NC(CO)CO)C(C2)O3)C(O)C(N)C1O` (stereo partly drawn) [AM-2-19]: the Compatibility result in data set [1] (setting [4]) is given as “compatible”; in data set [1] (setting [5]), “compatible”; in data set [1] (setting [6]) it was “Not compatible”; in data set [1] (setting [7]) it was “Not compatible”; in data set [1] (setting [8]), “Not compatible”; in data set [1] (setting [9]), “Not compatible”. Besides, the “Precipitate/Pellet or Coagulation Observed” value is “None” in data set [1] (setting [4]); “None” in data set [1] (setting [5]); “Pellet (Very Light)” in data set [1] (setting [6]); “Pellet (Light)” in data set [1] (setting [7]); “Pellet (Moderate)” in data set [1] (setting [8]); “Pellet (Severe)” in data set [1] (setting [9]). Besides, the solubility in data set [2] (in D5W/DSG-PEG2000 (1:3 molar ratio) without the acetate buffer) is about 100 µg/mL; in data set [2] (in D5W/DSG-PEG2000 with acetate buffer), over 8000 µg/mL. Besides, the solution stability result in data set [3] is “unstable even over the course of hours; also recorded: lacks solution stability”.
